Experimental data taken from publication PMC6148290, “Endogenous metabolites of vitamin E limit inflammation by targeting 5-lipoxygenase” (Nature Communications, 2018).

Legend:
[1] = tested on: peripheral blood mononuclear cells; test: Cell viability of PBMC (MTT assay); format: cell-based, human; conditions: 24 h
Procedure: The formazan product was solubilized with SDS (10% in 20 mM HCl), and absorbance was measured at 570 nm using a Multiskan Spectrum microplate reader (Thermo Fisher Scientific).

[2] = tested on: 15-LO; test: 15-LO product formation in A23187/AA-activated PMNL; format: cell-based, human; conditions: at 3 µM; mean ± s.e.m., n = 3; n.i. no inhibition
Procedure: (§1) Cells were washed and medium was exchanged. Freshly isolated PMNL (1 × 10^7) and stably transfected HEK-293 (1 × 10^6) cells were suspended in PBS pH 7.4 containing 1 mg/ml glucose and 1 mM CaCl2. […] A23187- and A23187/AA-treated PMNL and A23187/AA-treated HEK-293 (5-LO_wt), HEK-293 (5-LO_3W) and HEK-293 (5-LO_Arg101Asp) cells produced 135 ± 21, 636 ± 112, 300 ± 59, 133 ± 29, 55 ± 9 ng 5-LO products, respectively. PMNL synthesized 29 ± 6 ng 12-HETE and 97 ± 23 ng 15-HETE when challenged with A23187/AA. 5-LO products from monocytes were analyzed by UPLC-MS/MS.

[3] = molecular target: T1, 12-LO (Homo sapiens, UniProt P18054); test: 12-LO product formation in A23187/AA-activated PMNL; format: cell-based; conditions: at 3 µM; mean ± s.e.m., n = 3; n.i. no inhibition
T1 construct: 12-HETE (12-LO product from platelets in PMNL preparations); endogenous in cells; host or cells: platelets contaminating human PMNL preparations
T1 sequence (P18054 1-663): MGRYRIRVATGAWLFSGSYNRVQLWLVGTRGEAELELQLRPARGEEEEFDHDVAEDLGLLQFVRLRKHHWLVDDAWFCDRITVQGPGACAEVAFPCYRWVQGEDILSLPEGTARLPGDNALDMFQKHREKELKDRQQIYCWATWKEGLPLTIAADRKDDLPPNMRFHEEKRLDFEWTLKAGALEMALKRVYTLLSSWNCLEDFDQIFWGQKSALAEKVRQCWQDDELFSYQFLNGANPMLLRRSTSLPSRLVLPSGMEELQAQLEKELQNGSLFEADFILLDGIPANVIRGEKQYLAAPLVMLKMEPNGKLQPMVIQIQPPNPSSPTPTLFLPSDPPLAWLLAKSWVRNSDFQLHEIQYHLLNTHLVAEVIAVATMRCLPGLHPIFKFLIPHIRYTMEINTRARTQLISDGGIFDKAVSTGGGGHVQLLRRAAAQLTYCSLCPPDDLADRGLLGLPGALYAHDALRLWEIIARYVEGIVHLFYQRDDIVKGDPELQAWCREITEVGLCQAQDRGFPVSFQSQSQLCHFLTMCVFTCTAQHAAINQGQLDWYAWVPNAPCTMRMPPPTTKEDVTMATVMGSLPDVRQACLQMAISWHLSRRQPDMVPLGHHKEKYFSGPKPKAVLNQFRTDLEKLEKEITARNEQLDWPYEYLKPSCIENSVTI
Procedure: as §1

[4] = molecular target: T2, 5-LO (Homo sapiens, UniProt P09917); test: Activity of purified human recombinant 5-LO (cell-free); format: biochemical; set-up: made in house; host or cells: E. coli Bl21 (DE3)
T2 sequence (P09917 1-674): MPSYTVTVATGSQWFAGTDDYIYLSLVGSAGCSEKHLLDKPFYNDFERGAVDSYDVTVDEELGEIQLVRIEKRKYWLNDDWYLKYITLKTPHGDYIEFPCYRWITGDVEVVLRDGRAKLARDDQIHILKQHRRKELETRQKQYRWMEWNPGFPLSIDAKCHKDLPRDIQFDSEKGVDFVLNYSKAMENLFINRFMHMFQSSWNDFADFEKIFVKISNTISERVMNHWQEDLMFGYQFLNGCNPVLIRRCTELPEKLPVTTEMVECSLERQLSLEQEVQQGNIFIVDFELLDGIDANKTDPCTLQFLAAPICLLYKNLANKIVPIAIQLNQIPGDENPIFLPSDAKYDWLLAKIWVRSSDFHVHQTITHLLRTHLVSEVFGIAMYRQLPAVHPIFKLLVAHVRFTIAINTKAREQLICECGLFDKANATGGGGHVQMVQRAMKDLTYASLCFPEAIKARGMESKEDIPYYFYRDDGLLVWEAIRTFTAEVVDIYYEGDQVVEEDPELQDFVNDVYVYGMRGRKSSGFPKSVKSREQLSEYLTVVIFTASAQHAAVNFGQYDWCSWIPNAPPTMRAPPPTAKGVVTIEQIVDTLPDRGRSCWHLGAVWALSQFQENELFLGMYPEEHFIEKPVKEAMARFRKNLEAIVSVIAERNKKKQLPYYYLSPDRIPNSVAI
Procedure: E. coli Bl21 (DE3) cells were transformed with pT3–5LO plasmid to express human recombinant 5-LO, which was purified by affinity chromatography on an ATP-agarose column. In brief, E. coli was lysed in 50 mM triethanolamine/HCl pH 8.0 plus EDTA (5 mM), soybean trypsin inhibitor (60 µg/ml), phenylmethanesulphonyl fluoride (1 mM), dithiothreitol (1 mM), and lysozyme (1 mg/ml). After sonication (3 × 15 s), the homogenate was centrifuged at 10,000 × g for 15 min and the supernatant again at 40,000 × g for 70 min at 4 °C. The supernatant was applied to an ATP-agarose column (Sigma-Aldrich), and the column was washed with (i) PBS pH 7.4, 1 mM EDTA, (ii) 50 mM phosphate buffer pH 7.4, 0.5 M NaCl, 1 mM EDTA, and (iii) 50 mM phosphate buffer pH 7.4, 1 mM EDTA. 5-LO was eluted with 50 mM phosphate buffer pH 7.4, 1 mM EDTA, 20 mM ATP.
Purified 5-LO (0.5 µg) in PBS pH 7.4 containing EDTA (1 mM) and ATP (1 mM) was pre-incubated with LCMs for 10 min at 4 °C, pre-warmed for 30 s at 37 °C and 5-LO product formation was started by addition of AA (Sigma-Aldrich; 20 µM if not indicated otherwise) plus CaCl2 (2 mM). […] AA was added after incubation for 5 min on ice.

[5] = molecular target: T2, 5-LO; test: 5-LO product formation in activated PMNL; format: cell-based; set-up: Freshly isolated PMNL (1 × 10^7); endogenous in cells; host or cells: human PMNL freshly isolated from leukocyte concentrates; conditions: cell-based; mean ± s.e.m., n = 3; read-out: IC50, activated PMNL (5-LO)
Description: Human PMNL, monocytes, PBMC, and platelets were freshly isolated from leukocyte concentrates. The protocols for experiments with human blood and blood cells were approved by the ethical commission of the Friedrich-Schiller-University Jena. […] PMNL were recovered from the pellet after hypotonic lysis of erythrocytes. Platelets were obtained from the supernatant and washed with PBS pH 5.9/0.9% NaCl (1:1). […]

[6] = at 1 and 10 µM (one entry for both), n.i. no inhibition
[7] = cell-free, mean ± s.e.m., n = 3, read-out: IC50, human recombinant 5-LO
[8] = human recombinant 5-LO, read-out: IC50 for 5-LO inhibition

Row | Compound | 12-LO product formation/PMNL, residual activity [3] | IC50 [4, 7] [nM] | IC50 [5] [nM] | Cell viability/peripheral blood mononuclear cells, residual viability [1, 6] | 15-LO product formation/PMNL, residual activity [2] | further results
1 | Cc1cc(O)c(C)c2c1O[C@](C)(CCC[C@H](C)CCC[C@H](C)CCCC(C)C)CC2 [1b] | n.i. | 750 ± 150 | 57000 ± 2000 | n.i. | n.i. | 
2 | Cc1c(O)cc2c(c1C)O[C@](C)(CCC[C@H](C)CCC[C@H](C)CCCC(C)C)CC2 [1c] | n.i. | 910 ± 150 | 502000 ± 199000 | n.i. | n.i. | 
3 | C/C(=C\CC/C(C)=C/CC[C@]1(C)CCc2cc(Oc3c(O)cc(C)c4c3CC[C@@](C)(CC/C=C(\C)CC/C=C(\C)CCC=C(CO)CO)O4)c(C)c(C)c2O1)CCC=C(CO)CO [compound 10, (δ,γ)-bi-O-amplexichromanol] |  |  |  |  |  | IC50 ([4]; purified human recombinant 5-LO, mean ± s.e.m., n = 3, read-out: IC50 (5-LO)): 400 ± 110 nM
4 | C/C(=C/CC/C(C)=C/CC/C(C)=C/CC[C@]1(C)CCc2cc(O)c(C)c(C)c2O1)CO [3g] |  | 120 ± 30 | 140 ± 20 |  | 168.8 ± 1.2 % of control | Cell viability/peripheral blood mononuclear cells, residual viability ([1]; at 1 µM): n.i.; Cell viability/peripheral blood mononuclear cells, residual viability ([1]; at 10 µM): 43.7 ± 16.2 % of control
5 | C/C(=C\CC/C(C)=C/CC[C@]1(C)CCc2cc(O)cc(C)c2O1)CCC=C(CO)CO [compound 8] |  |  |  |  |  | IC50 [4]: 150 ± 40 nM
6 | C/C(=C\CC/C(C)=C/CC/C(C)=C/CC[C@]1(C)CCc2c(C)c(O)c(C)c(C)c2O1)CO [2e] | 62.7 ± 15.2 % of control | 110 ± 10 | 270 ± 100 |  | 88.0 ± 17.0 % of control | 
7 | C/C(=C\CC/C(C)=C/CC/C(C)=C/CC[C@]1(C)CCc2c(C)c(O)cc(C)c2O1)CO [2f] | 57.8 ± 13.6 % of control | 90 ± 30 | 380 ± 90 |  | 78.9 ± 14.8 % of control | IC50 [4, 8]: < 100 nM
8 | CC(C)=CCC/C(C)=C/CC/C(C)=C/CC[C@]1(C)CCc2cc(O)c(C)c(C)c2O1 [1g] | 70.8 ± 2.3 % of control | 200 ± 60 | 132000 ± 33000 |  | n.i. | 
9 | Cc1cc(O)cc2c1O[C@](C)(CCC[C@H](C)CCC[C@H](C)CCCC(C)CO)CC2 (stereo partly drawn) [2d] | 84.8 ± 7.8 % of control | 120 ± 40 | 540 ± 20 | n.i. | 142.8 ± 13.9 % of control | 
10 | CC(C)=CCC/C(C)=C/CC/C(C)=C/CC[C@]1(C)CCc2c(C)c(O)cc(C)c2O1 [1f] | 65.4 ± 6.1 % of control | 190 ± 30 | 95000 ± 5000 |  | n.i. | 
11 | C/C(=C\CC/C(C)=C/CC[C@]1(C)CCc2cc(O)c(C)c(C)c2O1)CCC=C(CO)CO [compound 9] |  |  |  |  |  | IC50 [4]: 110 nM
12 | CC(C)=CCC/C(C)=C/CC/C(C)=C/CC[C@]1(C)CCc2c(C)c(O)c(C)c(C)c2O1 [1e] | 88.9 ± 4.9 % of control | 330 ± 80 | 277000 ± 90000 |  | n.i. | 
13 | C/C(=C\CC[C@]1(C)CCc2cc(O)cc(C)c2O1)CC/C=C(\C)CCCC(C)C(=O)O (stereo partly drawn) [4l] |  |  |  |  |  | IC50 [4]: 170 ± 40 nM

Further lines, with some results ahead:

Row | 12-LO product formation/PMNL, residual activity [3] | IC50 [4, 7] [nM] | IC50 [5] [nM] | Compound | Cell viability/peripheral blood mononuclear cells, residual viability [1, 6] | 15-LO product formation/PMNL, residual activity [2] | further results
14 | 87.2 ± 3.6 % of control |  |  | Cc1c(C)c2c(c(C)c1O)CCC(C)(CCC(=O)O)O2 (stereo not drawn) [6a, 2,5,7,8-tetramethyl-2-(2′-carboxyethyl)-6-hydroxychroman] |  | n.i. | 
15 | 89.9 ± 4.2 % of control |  |  | Cc1c(O)cc2c(c1C)OC(C)(CCC(=O)O)CC2 (stereo not drawn) [6c, 2,7,8-trimethyl-2-(2′-carboxyethyl)-6-hydroxychroman] |  | n.i. | 
16 | n.i. |  |  | Cc1cc(O)cc2c1OC(C)(CCC(=O)O)CC2 (stereo not drawn) [6d, 2,8-dimethyl-2-(2′-carboxyethyl)-6-hydroxychroman] |  | n.i. | 
17 | 74.5 ± 5.9 % of control |  |  | Cc1cc(O)cc2c1O[C@](C)(CCC[C@H](C)CCC[C@H](C)CCCC(C)C(=O)O)CC2 (stereo partly drawn) [4d] | n.i. | 121.6 ± 10.9 % of control | 
18 | 70.0 ± 14.1 % of control |  |  | C/C(=C\CC/C(C)=C/CC[C@]1(C)CCc2c(C)c(O)cc(C)c2O1)CC/C=C(\C)C(=O)O [4f] | n.i. | 186.1 ± 35.8 % of control | 
19 | 72.6 ± 13.6 % of control |  |  | C/C(=C\CC/C(C)=C/CC[C@]1(C)CCc2c(C)c(O)c(C)c(C)c2O1)CC/C=C(\C)C(=O)O [4e] | n.i. | 181.5 ± 26.5 % of control | 
20 | 56.7 ± 3.0 % of control |  |  | Cc1c(C)c2c(c(C)c1O)CCC(C)(CCCC(C)C(=O)O)O2 (stereo not drawn) [5a, 3,4-dihydro-6-hydroxy-α,2,5,7,8-pentamethyl-2H-1-benzopyran-2-pentanoic acid] |  | n.i. | IC50 [4, 8]: 750 nM
